“And” between values parts separate entries of the source, which are not always exact repeats. Equal values may be shown once.
target: T1, Angiotensin-converting enzyme (Oryctolagus cuniculus, UniProt P12822); experiment: Ability to inhibit Angiotensin I converting enzyme was determined
T1 sequence (P12822 whole entry): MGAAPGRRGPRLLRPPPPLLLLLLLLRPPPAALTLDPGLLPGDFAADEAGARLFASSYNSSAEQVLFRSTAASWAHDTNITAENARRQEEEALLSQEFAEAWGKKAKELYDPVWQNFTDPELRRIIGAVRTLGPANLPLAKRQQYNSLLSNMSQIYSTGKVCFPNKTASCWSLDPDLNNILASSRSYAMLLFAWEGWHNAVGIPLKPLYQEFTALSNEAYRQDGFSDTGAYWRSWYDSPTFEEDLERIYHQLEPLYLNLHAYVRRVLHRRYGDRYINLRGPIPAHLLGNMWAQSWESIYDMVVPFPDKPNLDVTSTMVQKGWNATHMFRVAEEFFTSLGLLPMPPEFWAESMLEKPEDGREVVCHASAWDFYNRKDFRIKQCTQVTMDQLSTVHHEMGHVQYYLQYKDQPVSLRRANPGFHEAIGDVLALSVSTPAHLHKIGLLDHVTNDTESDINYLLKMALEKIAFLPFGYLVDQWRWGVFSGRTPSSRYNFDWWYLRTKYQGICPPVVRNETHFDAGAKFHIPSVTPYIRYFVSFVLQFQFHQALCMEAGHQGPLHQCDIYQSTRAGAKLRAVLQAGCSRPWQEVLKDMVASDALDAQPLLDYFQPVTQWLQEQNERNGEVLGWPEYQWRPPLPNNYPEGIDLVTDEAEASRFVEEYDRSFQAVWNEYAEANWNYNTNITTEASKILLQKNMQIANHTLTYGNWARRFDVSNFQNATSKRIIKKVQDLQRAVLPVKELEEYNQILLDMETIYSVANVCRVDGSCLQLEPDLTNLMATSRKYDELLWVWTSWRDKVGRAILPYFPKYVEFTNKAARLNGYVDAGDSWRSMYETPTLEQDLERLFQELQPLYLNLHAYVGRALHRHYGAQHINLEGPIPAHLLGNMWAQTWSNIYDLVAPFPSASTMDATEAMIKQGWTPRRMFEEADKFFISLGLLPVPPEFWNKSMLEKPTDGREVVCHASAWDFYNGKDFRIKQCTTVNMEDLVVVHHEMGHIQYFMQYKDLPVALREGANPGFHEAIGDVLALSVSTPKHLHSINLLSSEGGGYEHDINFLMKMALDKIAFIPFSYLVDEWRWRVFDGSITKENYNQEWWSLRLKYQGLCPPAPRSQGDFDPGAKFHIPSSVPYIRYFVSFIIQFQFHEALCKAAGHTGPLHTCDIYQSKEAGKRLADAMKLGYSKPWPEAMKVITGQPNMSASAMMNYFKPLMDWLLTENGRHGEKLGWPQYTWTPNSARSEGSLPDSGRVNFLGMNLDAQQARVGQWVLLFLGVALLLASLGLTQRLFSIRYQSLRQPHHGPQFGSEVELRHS

Going from `O=C(O)CN1CCCCC(CS)C1=O` (stereo not given) to `CC(C(=O)O)N1CCCCCC(CS)C1=O` (stereo not given), the IC50 falls from 170 nM to 53 nM (3.2-fold).

Going from `O=C(O)CN1C(=O)C(CS)CCCc2ccccc21` (stereo not given) to `O=C(O)CN1C(=O)C(CS)CCc2ccccc21` (stereo not given), the IC50 rises from 4 nM to 9 nM (2.2-fold).

`O=C(O)CN1CCCC(CS)C1=O` (stereo not given) was tested, and the IC50 was 1500 nM and 3400 nM.

— ChEMBL document CHEMBL1122740, “Bicyclic lactam inhibitors of angiotensin converting enzyme” (J Med Chem, 1984)
